Measured values as given in US11325938B2, “CD73 inhibitors” (ORIC Pharmaceuticals, Inc., priority 2018, dated 2022).

Target: CD73 (Homo sapiens (Human), UniProt P21589)
Assay: Biochemical assay: inhibition of CD73 activity (AMP hydrolysis, Malachite Green readout)
Conditions: CD73 0.3208 nM, AMP 15 μM, 25 mM Tris-HCl pH 7.4, RT, absorbance 620 nm
Procedure, shortened: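 Phosphate from AMP hydrolysis (15 μM AMP, 10 min, RT) was detected by Malachite Green absorbance to give IC50s. Enzyme at 320 pM was first exposed 15 min to compounds, dosed from 100 μM in ½-log steps, in Tris pH 7.4 buffer with MgCl2, Brij-35 and BSA.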

Sequence of CD73 (P21589 27-574): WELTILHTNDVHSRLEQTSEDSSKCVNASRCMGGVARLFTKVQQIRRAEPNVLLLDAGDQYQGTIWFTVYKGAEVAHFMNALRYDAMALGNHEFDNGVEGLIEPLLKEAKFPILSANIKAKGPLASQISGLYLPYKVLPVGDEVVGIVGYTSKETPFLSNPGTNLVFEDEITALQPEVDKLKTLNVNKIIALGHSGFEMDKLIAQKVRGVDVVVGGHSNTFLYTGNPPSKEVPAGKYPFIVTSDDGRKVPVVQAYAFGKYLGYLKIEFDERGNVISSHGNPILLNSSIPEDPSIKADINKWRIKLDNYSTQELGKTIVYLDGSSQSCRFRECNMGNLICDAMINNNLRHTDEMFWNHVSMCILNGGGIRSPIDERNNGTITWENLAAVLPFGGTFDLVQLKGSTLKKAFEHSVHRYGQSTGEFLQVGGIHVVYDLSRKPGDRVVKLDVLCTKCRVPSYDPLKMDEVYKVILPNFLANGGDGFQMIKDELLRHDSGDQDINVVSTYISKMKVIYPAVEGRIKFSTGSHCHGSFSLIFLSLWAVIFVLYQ

Row | SMILES | IC50 [nM]
1 | C[C@@](CO)(OC[C@H]1O[C@@H](n2ncc3c(NC4CCCC4)nc(OCCO)nc32)[C@H](O)[C@@H]1O)P(=O)(O)O [Example 134, ((R)-2-(((2R,3S,4R,5R)-5-(4-(cyclopentylamino)-6-(2-hydroxyethoxy)-1H-pyrazolo[3,4-d]pyrimidin-1-yl)-3,4-dihydroxytetrahydrofuran-2-yl)methoxy)-1-hydroxypropan-2-yl)phosphonic acid] | ≤ 100
2 | COC[C@](C)(OC[C@H]1O[C@@H](n2nnc3c(NC4CCCC4)cc(Cl)nc32)[C@H](O)[C@@H]1O)P(=O)(O)O [Example 148, ((R)-2-(((2R,3S,4R,5R)-5-(5-chloro-7-(cyclopentylamino)-3H-[1,2,3]triazolo[4,5-b]pyridin-3-yl)-3,4-dihydroxytetrahydrofuran-2-yl)methoxy)-1-methoxypropan-2-yl)phosphonic acid] | ≤ 100
3 | C[C@H](OC[C@H]1O[C@@H](n2ncc3c(NC4CCCC4)nc(Cl)nc32)[C@H](O)[C@@H]1O)P(=O)(O)O [Example 33, ((R)-1-(((2R,3S,4R,5R)-5-(6-chloro-4-(cyclopentylamino)-1H-pyrazolo[3,4-d]pyrimidin-1-yl)-3,4-dihydroxytetrahydrofuran-2-yl)methoxy)ethyl)phosphonic acid] | ≤ 100
4 | CC(CO)(OC[C@H]1O[C@@H](n2ncc3c(N[C@H]4CCC45CCC5)nc(Cl)nc32)[C@H](O)[C@@H]1O)P(=O)(O)O (stereo partly drawn) [Example 136, (2-(((2R,3S,4R,5R)-5-(6-chloro-4-(((S)-spiro[3.3]heptan-1-yl)amino)-1H-pyrazolo[3,4-d]pyrimidin-1-yl)-3,4-dihydroxytetrahydrofuran-2-yl)methoxy)-1-hydroxypropan-2-yl)phosphonic acid] | ≤ 100
5 | C[C@H](P(=O)(O)O)S(=O)(=O)C[C@H]1O[C@@H](n2ncc3c(NC4CCCC4)nc(Cl)nc32)[C@H](O)[C@@H]1O [Example 7, ((R)-1-((((2S,3S,4R,5R)-5-(6-Chloro-4-(cyclopentylamino)-1H-pyrazolo[3,4-d]pyrimidin-1-yl)-3,4-dihydroxytetrahydrofuran-2-yl)methyl)sulfonyl)ethyl)phosphonic acid] | ≤ 100
6 | O=P(O)(O)C(CO)OC[C@H]1O[C@@H](n2ccc3c(NC4CCCC4)nc(Cl)nc32)[C@H](O)[C@@H]1O (stereo partly drawn) [Example 117, (1-(((2R,3S,4R,5R)-5-(2-chloro-4-(cyclopentylamino)-7H-pyrrolo[2,3-d]pyrimidin-7-yl)-3,4-dihydroxytetrahydrofuran-2-yl)methoxy)-2-hydroxyethyl)phosphonic acid] | ≤ 100
7 | O=P(O)(O)CS(=O)(=O)C[C@H]1O[C@@H](n2nnc3c(N[C@@H]4CCc5ccccc54)cc(Cl)nc32)[C@H](O)[C@@H]1O [Example 83] | ≤ 100
8 | CC(CO)(OC[C@H]1O[C@@H](n2cnc3c(NC4CCCC4)nc(Cl)nc32)[C@H](O)[C@@H]1O)P(=O)(O)O (stereo partly drawn) [Example 76, (2-(((2R,3S,4R,5R)-5-(2-chloro-6-(cyclopentylamino)-9H-purin-9-yl)-3,4-dihydroxytetrahydrofuran-2-yl)methoxy)-1-hydroxypropan-2-yl)phosphonic acid] | ≤ 100
9 | O=P(O)(O)COC[C@H]1O[C@@H](n2nnc3c(NC4CCC4)cc(Cl)nc32)[C@H](O)[C@@H]1O [Example 23, ((((2R,3S,4R,5R)-5-(5-chloro-7-(cyclobutylamino)-3H-[1,2,3]triazolo[4,5-b]pyridin-3-yl)-3,4-dihydroxytetrahydrofuran-2-yl)methoxy)methyl)phosphonic acid] | ≤ 100
10 | COCC(OC[C@H]1O[C@@H](n2ncc3c(NC4CCCC4)nc(Cl)nc32)[C@H](O)[C@@H]1O)P(=O)(O)O (stereo partly drawn) [Example 31, (1-(((2R,3S,4R,5R)-5-(6-chloro-4-(cyclopentylamino)-1H-pyrazolo[3,4-d]pyrimidin-1-yl)-3,4-dihydroxytetrahydrofuran-2-yl)methoxy)-2-methoxyethyl)phosphonic acid] | ≤ 100
11 | O=P(O)(O)CP(=O)(O)OC[C@H]1O[C@@H](n2nnc3c(NC4CCCC4)cc(Cl)nc32)[C@H](O)[C@@H]1O [Example 53, (((((2R,3S,4R,5R)-5-(5-chloro-7-(cyclopentylamino)-3H-[1,2,3]triazolo[4,5-b]pyridin-3-yl)-3,4-dihydroxytetrahydrofuran-2-yl)methoxy)(hydroxy)phosphoryl)methyl)phosphonic acid] | ≤ 100
12 | CC(CO)(OC[C@H]1O[C@@H](n2nnc3c(NC4CCCC4)cc(Cl)nc32)[C@H](O)[C@@H]1O)P(=O)(O)O (stereo partly drawn) [Example 66, (2-(((2R,3S,4R,5R)-5-(5-chloro-7-(cyclopentylamino)-3H-[1,2,3]triazolo[4,5-b]pyridin-3-yl)-3,4-dihydroxytetrahydrofuran-2-yl)methoxy)-1-hydroxypropan-2-yl)phosphonic acid] | ≤ 100
13 | CC(CO)(OC[C@H]1O[C@@H](n2ncc3c(NC4CCCC4)nc(OCCO)nc32)[C@H](O)[C@@H]1O)P(=O)(O)O (stereo partly drawn) [Example 68, (2-(((2R,3S,4R,5R)-5-(4-(cyclopentylamino)-6-(2-hydroxyethoxy)-1H-pyrazolo[3,4-d]pyrimidin-1-yl)-3,4-dihydroxytetrahydrofuran-2-yl)methoxy)-1-hydroxypropan-2-yl)phosphonic acid] | ≤ 100
14 | N#CC(OC[C@H]1O[C@@H](n2ncc3c(NC4CCCC4)nc(Cl)nc32)[C@H](O)[C@@H]1O)P(=O)(O)O (stereo partly drawn) [Example 2, ((((2R,3S,4R,5R)-5-(6-Chloro-4-(cyclopentylamino)-1H-pyrazolo[3,4-d]pyrimidin-1-yl)-3,4-dihydroxytetrahydrofuran-2-yl)methoxy)(cyano)methyl)phosphonic acid] | 100 to 1000
15 | O=P(O)(O)[C@@H](CO)OC[C@H]1O[C@@H](n2ncc3c(NC4CCCC4)nc(Cl)nc32)[C@H](O)[C@@H]1O (single isomer, unassigned) [Example 3] | ≤ 100

Next, values leading:

Row | IC50 [nM] | SMILES
16 | ≤ 100 | O=P(O)(O)C(CO)(Cc1ncccn1)OC[C@H]1O[C@@H](n2ncc3c(NC4CCCC4)nc(Cl)nc32)[C@H](O)[C@@H]1O (mixture of isomers) [Example 168, rac-(2-(((2R,3S,4R,5R)-5-(6-chloro-4-(cyclopentylamino)-1H-pyrazolo[3,4-d]pyrimidin-1-yl)-3,4-dihydroxytetrahydrofuran-2-yl)methoxy)-1-hydroxy-3-(pyrimidin-2-yl)propan-2-yl)phosphonic acid]
17 | ≤ 100 | COCC(OC[C@H]1O[C@@H](n2ncc3c(NC4CCCC4)nc(Cl)nc32)[C@H](O)[C@@H]1O)(C(=O)O)P(=O)(O)O (mixture of isomers) [Example 221, rac-(R)-2-(((2R,3S,4R,5R)-5-(6-chloro-4-(cyclopentylamino)-1H-pyrazolo[3,4-d]pyrimidin-1-yl)-3,4-dihydroxytetrahydrofuran-2-yl)methoxy)-3-methoxy-2-phosphonopropanoic acid]
18 | ≤ 100 | NC(=O)OC[C@@](CO)(OC[C@H]1O[C@@H](n2ncc3c(NC4CCCC4)nc(Cl)nc32)[C@H](O)[C@@H]1O)P(=O)(O)O (racemic) [Example 215, rac-((R)-1-(carbamoyloxy)-2-(((2S,3R,4S,5S)-5-(6-chloro-4-(cyclopentylamino)-1H-pyrazolo[3,4-d]pyrimidin-1-yl)-3,4-dihydroxytetrahydrofuran-2-yl)methoxy)-3-hydroxypropan-2-yl)phosphonic acid]
19 | ≤ 100 | O=P(O)(O)[C@@](CO)(Cc1nn[nH]n1)OC[C@H]1O[C@@H](n2ncc3c(NC4CCC4)nc(Cl)nc32)[C@H](O)[C@@H]1O (racemic) [Example 213, rac-((R)-2-(((2R,3S,4R,5R)-5-(6-chloro-4-(cyclobutylamino)-1H-pyrazolo[3,4-d]pyrimidin-1-yl)-3,4-dihydroxytetrahydrofuran-2-yl)methoxy)-1-hydroxy-3-(2H-tetrazol-5-yl)propan-2-yl)phosphonic acid]
20 | 100 to 1000 | O=C(O)c1ccc(C[C@](CO)(OC[C@H]2O[C@@H](n3ncc4c(NC5CCCC5)nc(Cl)nc43)[C@H](O)[C@@H]2O)P(=O)(O)O)cc1 (racemic) [Example 188, rac-4-((R)-2-(((2S,3R,4S,5S)-5-(6-chloro-4-(cyclopentylamino)-1H-pyrazolo[3,4-d]pyrimidin-1-yl)-3,4-dihydroxytetrahydrofuran-2-yl)methoxy)-3-hydroxy-2-phosphonopropyl)benzoic acid]
21 | ≤ 100 | C[C@](CO)(OC[C@H]1O[C@@H](n2ncc3c(NC4CCCC4)nc(C#CCO)nc32)[C@H](O)[C@@H]1O)P(=O)(O)O (racemic) [Example 199, rac-((R)-2-(((2S,3R,4S,5S)-5-(4-(cyclopentylamino)-6-(3-hydroxyprop-1-yn-1 yl)-1H-pyrazolo[3,4-d]pyrimidin-1-yl)-3,4-dihydroxytetrahydrofuran-2-yl)methoxy)-1-hydroxypropan-2-yl)phosphonic acid]
22 | ≤ 100 | O=P(O)(O)[C@@](CO)(COCC1CC1)OC[C@H]1O[C@@H](n2ncc3c(NC4CCCC4)nc(Cl)nc32)[C@H](O)[C@@H]1O (racemic) [Example 171, rac-((R)-2-(((2S,3R,4S,5S)-5-(6-chloro-4-(cyclopentylamino)-1H-pyrazolo[3,4-d]pyrimidin-1-yl)-3,4-dihydroxytetrahydrofuran-2-yl)methoxy)-1-(cyclopropylmethoxy)-3-hydroxypropan-2-yl)phosphonic acid]
23 | ≤ 100 | COC[C@H](OC[C@H]1O[C@@H](n2nnc3c(NC4CCCC4)cc(Cl)nc32)[C@H](O)[C@@H]1O)P(=O)(O)O [Example 157, ((R)-1-(((2R,3S,4R,5R)-5-(5-chloro-7-(cyclopentylamino)-3H-[1,2,3]triazolo[4,5-b]pyridin-3-yl)-3,4-dihydroxytetrahydrofuran-2-yl)methoxy)-2-methoxyethyl)phosphonic acid]
24 | ≤ 100 | COCC(OC[C@H]1O[C@@H](n2cnc3c(NC4CCCC4)nc(Cl)nc32)[C@H](O)[C@@H]1O)P(=O)(O)O (stereo partly drawn) [Example 160, (1-(((2R,3S,4R,5R)-5-(2-chloro-6-(cyclopentylamino)-9H-purin-9-yl)-3,4-dihydroxytetrahydrofuran-2-yl)methoxy)-2-methoxyethyl)phosphonic acid]
